Consider 21 compounds from patent US9284296B2, “Bipyridine sulfonamide derivatives for the treatment of neurodegenerative diseases or conditions” (AUBERGINE PHARMACEUTICALS LLC, priority 2010, dated 2016).

Assay type in all cases: cell-based
Assay [1] has as its system SH-SY5Y human neuroblastoma cells. In words: Protection against hydrogen peroxide-induced cell death. The conditions noted are these: for EC50: Homo sapiens, SH-SY5Y cells, 1 h preincubation, 100 μM hydrogen peroxide, 24 h, LDH readout of live cells. Here is the method:
The aim of this assay is to determine the neuroprotective effect of the compounds when human neuroblastoma cells are exposed to the oxidative stress induced by hydrogen peroxide, which leads to cell death. Therefore the protective effect of the compounds was measured by monitoring cell survival using a suitable commercial kit (Cytotoxicity Detection Kit, Roche Diagnostics GmbH, Mannheim, Germany) based on the quantification of the lactate dehydrogenase activity obtained from lysates of the remaining live cells with a colorimetric assay yielding absorbance at 492 nm as the final readout.
SH-SY5Y human neuroblastoma cells were seeded into 96-well culture plate at a density of 10,000 cells/well. Cells were preincubated for one hour with different concentrations of the compound at a 1% (v/v) DMSO concentration in an equivolumetric mixture of Minimum Essential Medium (MEM) and Nutrient Mixture HAM F12 supplemented with 10% foetal bovine serum, 100 U/ml penicillin, 100 μg/ml streptomycin, 1 mM each of non-essential aminoacids (commercial preparation from GIBCO, Paisley, UK) and 2 mM L-glutamine. Hydrogen peroxide was then added to reach 100 μM and the incubation was extended for 24 h. Then the medium was removed and live cells, which remained attached to the bottom of the plate, were lysed by incubating them during 5 min with 50 μl of 1% (v/v) Triton X-100 in Krebs-Hepes buffer (10 mM Hepes pH7.3 with 145 mM NaCl, 5.5 mM KCl, 1 mM MgCl2, 2 mM CaCl2 and 1 mM glucose). This lysate was used to measure LDH activity using the commercial kit according to the manufacturer's instructions. In the culture plate several wells were included as a control of cell death, in these wells the cells were preincubated with 1% (v/v) DMSO before hydrogen peroxide addition. Likewise, several wells were included as control for full cell survival, in these wells the addition of H2O2 was omitted. The absorbance of each tested sample was normalized to that of the control wells, so that for every compound concentration the percentage of protective effect was calculated with the following equation:
[formula] where “S” is the absorbance of the sample being considered, “E” is the average absorbance of wells used as control of full cell survival and “B” is the average absorbance of wells used as control of cell death. The values obtained at every compound concentration were finally used to calculate the EC50 (i.e., the concentration causing 50% of protective effect) of the tested compound. For that purpose the data were fitted to a classical 4-parameters isotherm equation using the nonlinear regression function of GraphPad™ Prism 5.0 (GraphPad Software Inc.), such equation is described below:
[formula] where “L” is the lower asymptote of the theoretical sigmoidal curve, “H” is the higher asymptote, “C” is the concentration of compound and “n” is the Hill coefficient.

The test system of assay [2] is secretion of amyloid peptide β1-40 (Aβ1-40). In words: Inhibition of β-amyloid secretion (CHO7w cells stably transfected with human APP, ELISA). The conditions noted are these: CHO-7W, 24 h incubation, range stated for the listed compounds together. Here is the method:
The inhibition caused by the compounds on the secretion of amyloid peptide β1-40 (Aβ1-40) was determined by measuring the levels of this peptide in cell supernatants after incubating the cells with several concentrations of the tested compound. A CHO7w cell line, stably transfected with human amyloid precursor protein (APP), was used. Cells were dispensed in 96-well culture plates (5,000 cells/well) and grown in DMEM supplemented with 2% (v/v) foetal bovine serum, 100 U/ml penicillin, 100 μg/ml streptomycin, 2 mM L-glutamine and 200 μg/ml G418 in the presence of several concentrations of the tested compound which had been previously dissolved in DMSO (1% (v/v) DMSO final concentration). After a 24 h incubation the amount of Aβ1-40 secreted to the medium was measured with an ELISA-based commercial kit (Human Amyloid β-40 ELISA High Sensitivity Kit, Millipore, Billerica, Mass., USA) using absorbance at 450 nm as the final readout. In the culture plate several wells were included as a control for lack of Aβ1-40 secretion, in these wells the cells were incubated in the presence of 16% (v/v) DMSO to inhibit cell growth therefore abolishing Aβ1-40 secretion. Likewise, several wells were also included as a control for full Aβ1-40 secretion, in these wells the cells were grown in the presence of 1% (v/v) DMSO. The absorbance of each tested sample was normalized to that of the control wells, so that for every compound concentration the percentage of inhibition was calculated with the following equation:
[formula] where “S” is the absorbance of the sample being considered, “E” is the average absorbance of wells lacking Aβ1-40 secretion and “B” is the average absorbance of wells with full Aβ1-40 secretion. The inhibition values obtained at every compound concentration were fitted to a 4-parameters isotherm equation, as described above, to calculate the […] (i.e., the concentration causing 50% of inhibition of Ab1-40 secretion).
(An ELISA detects its analyte on a solid surface through an enzyme-linked reagent.)

Assay [3] has as its system secretion of soluble amyloid precursor protein-α (sAPPα). In words: Stimulation of sAPPα secretion (CHO7w cells stably transfected with human APP, AlphaLISA). The conditions noted are these: for EC50 / Emax: Homo sapiens, CHO-7W, CHO7w cells, 24 h incubation, range stated for the listed compounds together; for Emax: read-out: maximum effect (sAPPα secretion). On the procedure:
The effect of the compounds on the stimulation of the secretion of soluble amyloid precursor protein-α (sAPPα) was determined by measuring the levels of this protein in cell supernatants after incubating the cells with several concentrations of the tested compound. A CHO7w cell line, stably transfected with human APP, was used. Cells were dispensed in 96-well culture plates (5,000 cells/well) and grown in DMEM supplemented with 2% (v/v) foetal bovine serum, 100 U/ml penicillin, 100 μg/ml streptomycin, 2 mM L-glutamine and 200 μg/ml G418 in the presence of several concentrations of the tested compound which had been previously dissolved in DMSO (1% (v/v) DMSO final concentration). After 24 h of incubation 5 μl of the culture supernatants were withdrawn and their sAPPα. concentration was measured with a commercial kit (AlphaLISA® Amyloid Precursor Protein-α Secreted Research kit, PerkinElmer, Waltham, Mass., USA) following manufacturer's instructions. In the culture plate several wells were included as a control for background sAPPα secretion, in these wells the cells were incubated with 1% (v/v) DMSO. The results obtained for each tested sample were normalized by using the following equation:
[formula] where “S” is the sAPPα concentration of the sample being considered, “B” is the average sAPPα concentration of wells used for background secretion and “M” is the sAPPα concentration of wells yielding the highest value. These normalized values obtained at every compound concentration were finally used to calculate the EC50 of the tested compound fitting them to a 4-parameters isotherm equation as already described. The average EC50s ranges are reported in Table 4 together with the maximum observed effect (and the concentration at which this effect was reached), this latter value was calculated for each compound according to the following equation:
[formula] with “M” and “B” as defined above.
In general terms: Alpha assays give light when donor and acceptor beads are brought close together.

By EC50 is commonly meant the midpoint of the concentration-response curve. A higher EC50 goes with a less potent agent. The term IC50 denotes the point on the concentration scale where inhibition reaches its midpoint. A high value points to weaker potency in that assay. In the case of `COc1cc(CNS(=O)(=O)c2ccc(C(F)(F)F)cc2)nc(-c2ccccn2)c1` [Compound 4, N-(4-Methoxy-[2,2′]bipyridinyl-6-ylmethyl)-4-trifluoromethyl-benzenesulfonamide], the response in assay [1] was half-maximal at 2600 nM (EC50). In assay [2], this compound gave an IC50 of 300 to 42000 nM.

`COc1cc(CNS(=O)(=O)c2ccccc2)nc(-c2ccccn2)c1` [Compound 6, N-(4-Methoxy-[2,2′]bipyridinyl-6-ylmethyl)-benzenesulfonamide] gave an EC50 in assay [1] of 1580 nM. In assay [3], the EC50 was in the range of 500 to 11000 nM and the Emax is 250 to 500%.

With `COc1cc(CNS(=O)(=O)c2cccs2)nc(-c2ccccn2)c1` [Compound 8], the values for the EC50 in assay [1] and in assay [3] were 90 nM and 500 to 11000 nM, respectively. Also, the “rank of activity among compounds assayed (protection against hydrogen peroxide)” value in assay [1] (comparison within Table 2) was “most active compound”. Further, the Emax in assay [3] was in the range of 250 to 500%. Also, the “rank of concentration at which maximum effect was reached (sAPPα secretion)” value in assay [3] (comparison among tested compounds) is “maximum effect at the lowest concentration”.

For the compound `COc1cc(CNS(=O)(=O)c2ccc(C(C)=O)cc2)nc(-c2ccccn2)c1` [Compound 9], the EC50 was 6100 nM in assay [1] and 500 to 11000 nM in assay [3]. The Emax in assay [3] fell in the range of 250 to 500%.

On to `COc1cc(CNS(=O)(=O)c2ccc(F)cc2)nc(-c2ccccn2)c1` [Compound 11, 4-Fluoro-N-(4-methoxy-[2,2′]bipyridinyl-6-ylmethyl)-benzenesulfonamide], for which the response in assay [1] was half-maximal at 1300 nM (EC50). In addition, in assay [3], the EC50 is 500 to 11000 nM and the Emax is 250 to 500%.

`COc1cc(CNS(=O)(=O)c2cccc(F)c2)nc(-c2ccccn2)c1` [Compound 12, 3-Fluoro-N-(4-methoxy-[2,2′]bipyridinyl-6-ylmethyl)-benzenesulfonamide] had an EC50 in assay [1] of 1060 nM. Further, in assay [3], the EC50 fell in the range of 500 to 11000 nM and the Emax lay in the range of 250 to 500%.

On to `COc1cc(CNS(=O)(=O)c2ccc(C#N)cc2)nc(-c2ccccn2)c1` [Compound 13, 4-Cyano-N-(4-methoxy-[2,2′]bipyridinyl-6-ylmethyl)-benzenesulfonamide], for which the half-maximal effective concentration (EC50) in assay [1] was 1500 nM; in assay [3] it was 500 to 11000 nM. In addition, the Emax in assay [3] was in the range of 250 to 500%.

In assay [1], `COc1cc(CNS(=O)(=O)c2ccc(F)c(C#N)c2)nc(-c2ccccn2)c1` [Compound 14, 3-Cyano-4-fluoro-N-(4-methoxy-[2,2′]bipyridinyl-6-ylmethyl)-benzenesulfonamide] had an EC50 of 1600 nM. In assay [3], the EC50 is 500 to 11000 nM and the Emax fell in the range of 250 to 500%.

In the case of `COc1cc(CNS(=O)(=O)c2ccc(Br)cc2)nc(-c2ccccn2)c1` [Compound 16, 4-Bromo-N-(4-methoxy-[2,2′]bipyridinyl-6-ylmethyl)-benzenesulfonamide], a half-maximal effect in assay [1] (EC50) was put at 3200 nM. In assay [3], the EC50 was 500 to 11000 nM and the Emax is 250 to 500%.

For the compound `COc1cc(CNS(=O)(=O)c2ccc(Br)s2)nc(-c2ccccn2)c1` [Compound 18, 5-Bromo-thiophene-2-sulfonic acid (4-methoxy-[2,2′]bipyridinyl-6-ylmethyl)-amide], the EC50 in assay [1] was 1880 nM; in assay [3] it was 500 to 11000 nM. Moreover, the Emax in assay [3] is 250 to 500%.

With `COc1cc(CNS(=O)(=O)c2ccc(C)s2)nc(-c2ccccn2)c1` [Compound 24, 5-Methyl-thiophene-2-sulfonic acid (4-methoxy-[2,2′]bipyridinyl-6-ylmethyl)-amide], the EC50 in assay [1] is 3460 nM. This compound yielded an IC50 in assay [2] of 300 to 42000 nM.

In the case of `COc1cc(CN(S(=O)(=O)c2ccc(Cl)s2)S(=O)(=O)c2ccc(Cl)s2)nc(-c2ccccn2)c1` [Compound 26], the response in assay [1] was half-maximal at 4600 nM (EC50). In addition, the IC50 in assay [2] is 300 to 42000 nM.

Turning to `COc1cc(CN(Cc2cc(OC)cc(-c3ccccn3)n2)S(=O)(=O)c2ccc(Cl)s2)nc(-c2ccccn2)c1` [Compound 27], in assay [1], the EC50 stood at 3520 nM. The same compound showed an IC50 in assay [2] of 300 to 42000 nM.

Turning to `CCN(CC)CCOc1cc(CNS(=O)(=O)c2cccs2)nc(-c2ccccn2)c1` [Compound 28, Thiophene-2-sulfonic acid [4-(2-diethylamino-ethoxy)-[2,2′]bipyridinyl-6-ylmethyl]-amide], the midpoint of the response in assay [1], the EC50, lay at 1160 nM. In assay [3], the EC50 fell in the range of 500 to 11000 nM and the Emax is 250 to 500%.

As for `CCN(CC)CCOc1cc(CNS(=O)(=O)c2ccc(C)s2)nc(-c2ccccn2)c1` [Compound 32, 5-Methyl-thiophene-2-sulfonic acid [4-(2-diethylamino-ethoxy)-[2,2′]bipyridinyl-6-ylmethyl]-amide], the half-maximal effective concentration (EC50) in assay [1] came to 550 nM. In assay [3], the EC50 is 500 to 11000 nM and the Emax lay in the range of 250 to 500%.

In assay [1], `COc1cc(CNS(=O)(=O)c2ccc(-c3cnco3)s2)nc(-c2ccccn2)c1` [Compound 55] had an EC50 of 1300 nM. In addition, the IC50 in assay [2] fell in the range of 300 to 42000 nM.

In turn, `COc1cc(CNS(=O)(=O)c2cccc(Cl)c2F)nc(-c2ccccn2)c1` [Compound 56] displayed an EC50 in assay [1] of 1060 nM. Further, the IC50 in assay [2] was in the range of 300 to 42000 nM.

On to `COc1cc(CNS(=O)(=O)CC(F)(F)F)nc(-c2ccccn2)c1` [Compound 82], for which, in assay [1], the EC50 is 500 nM. The IC50 in assay [2] lay within 300 to 42000 nM.

`COc1cc(CNS(=O)(=O)c2cc(Cl)ccc2Cl)nc(-c2ccccn2)c1` [Compound 100]: the EC50 in assay [1] turned out to be 1040 nM. The compound further returned an IC50 in assay [2] of 300 to 42000 nM.

Take `COc1cc(CNS(=O)(=O)c2sc(Cl)nc2Cl)nc(-c2ccccn2)c1` [Compound 101]: a half-maximal response in assay [1] (EC50) required 230 nM. In addition, the IC50 in assay [2] is 300 to 42000 nM.

`COc1cc(CNS(=O)(=O)c2cnc(Cl)s2)nc(-c2ccccn2)c1` [Compound 106] displayed an EC50 in assay [1] of 630 nM. The IC50 in assay [2] lay in the range of 300 to 42000 nM.
